Reference: paper PMC6270814, “Effects of Ursolic Acid Derivatives on Caco-2 Cells and Their Alleviating Role in Streptozocin-Induced Type 2 Diabetic Rats” (Molecules, 2014)

How the values were obtained:
[1] = test system: Caco-2 cells; test: MTT cytotoxicity assay on Caco-2 cells; type: cell-based, Human; details: Homo sapiens, 24 h, mean ± SD, n = 4, read-out: Inhibition Rate %
Experimental: Human intestinal Caco-2 cells (ATCC, Rockville, MD, USA) were incubated at 37 °C in a humidified atmosphere of 5% CO2 in air. The cells were cultured in Dulbecco’s […] medium (DMEM) with 10% heat-inactivated fetal bovine serum, 1% non-essential amino acids, 1% L-glutamine, 1% penicillin/streptomycin (Gibco Life Technologies, Grand Island, NY, USA). The cells were sub-cultured at confluence by 0.05% trypsin-0.5 mM EDTA treatment before they were applied in the experiment.
A MTT test was conducted to determine the possible toxicity of UA and its derivatives to Caco-2 cells. Briefly, cells were seeded at a density of 1 × 10^4 cells/mL in a 96-well plate and incubated for 24 h. The next day, cells were incubated with vehicle (0.1% DMSO) and compounds at 100, 50, 25, 12.5 μmol/L for 24 h, and then 5 g/L MTT solution (20 μL) was added for 4 h. Absorbance at 570 nm was measured using a Multimodel Plate Reader (Infinite 200, Tecan, Mannedorf, Switzerland).

[2] = test system: STZ-induced diabetic rats; test: Body weight and daily food intake of STZ-induced diabetic rats; type: in vivo, rat; details: compounds 100 mg/kg, glibenclamide 10 mg/kg, oral
Experimental: (§1) Diabetes was induced by a single intraperitoneal injection of streptozotocin (Sigma-Aldrich, St. Louis, MO, USA) at a dose of 65 mg/kg body weight. STZ was dissolved in 0.1 M cold citrate buffer, pH 4.5. Control group were injected with citrate buffer alone. After 7 days for the development of diabetes, plasma glucose levels were determined of each rat. Rats with fasting blood glucose (FBG) range of above 16.7 mmol/L were considered as DM rats and were used for further study.
(§2) According to the body weight and plasma glucose levels the rats were divided randomly into seven groups with six rats each and treated as follows: • Group I: Normal rats treated with 0.5% CMC-Na (2 mL/200 g body weight). • Group II: Diabetic rats treated with 0.5% CMC-Na. • Group III: Diabetic rats treated with 10 mg/kg of glibenclamide. • Group IV: Diabetic rats treated with 100 mg/kg of compound 1 (UA). • Group V: Diabetic rats treated with 100 mg/kg of compound 10. • Group VI: Diabetic rats treated with 100 mg/kg of compound 11. • Group VII: Diabetic rats treated with 100 mg/kg of compound 12.
(§3) The treatment was continued daily for 28 days. Blood glucose levels and body weight were measured every week to ascertain the status of diabetes. After 4 weeks of treatment, the animals were fasted for 12 h and sacrificed by cervical dislocation under mild anaesthetization, blood was collected into heparinized tubes and centrifuged at 2,000 rpm for 10 min. Livers and kidneys were removed, washed and homogenized in ice-cold normal saline. This homogenates were centrifuged at 3,000 rpm for 10 min at 4 °C, and the supernatants were collected for the estimate of antioxidant markers.

[3] = test system: STZ-induced diabetic rats; test: Serum biochemical parameters (insulin, total protein, albumin) in STZ-induced diabetic rats; type: in vivo, rat; details: 4 weeks, compounds 100 mg/kg, glibenclamide 10 mg/kg
Experimental: as §1, §2, §3
(§4) Fasting blood glucose levels were estimated on days 0, 7, 14, 28 with the single touch glucometer (Life Scan, Johnson & Johnson Company, New Brunswick, NJ, USA). Serum insulin level was measured by use of a commercial immunoassay kit by enzyme linked immunosorbent assay (Uscn. Life Science Inc., Wuhan, China). Serum total protein, albumin, triglycerides (TG), total cholesterol (TC), high-density lipoprotein cholesterol (HDL-C), and low-density lipoprotein cholesterol (LDL-C) were measured with an automatic biochemical analyzer (Sinnowa D240, Nanjing, China).

[4] = test system: STZ-induced diabetic rats; test: Fasting blood glucose in STZ-induced diabetic rats, 4 weeks treatment; type: in vivo, rat; details: for effect on lowering fasting blood glucose levels / Fasting Blood Glucose Level, Week 0 / Fasting Blood Glucose Level, Week 1 / Fasting Blood Glucose Level, Week 2 / Fasting Blood Glucose Level, Week 3 / Fasting Blood Glucose Level, Week 4: STZ diabetic rats; for effect on lowering fasting blood glucose levels: 100 mg/kg, 4 weeks; for Fasting Blood Glucose Level, Week 0: Week 0 (before treatment); for Fasting Blood Glucose Level, Week 0 / Fasting Blood Glucose Level, Week 1 / Fasting Blood Glucose Level, Week 2 / Fasting Blood Glucose Level, Week 3 / Fasting Blood Glucose Level, Week 4: compounds 100 mg/kg, n = 6; for Fasting Blood Glucose Level, Week 1 / Fasting Blood Glucose Level, Week 2 / Fasting Blood Glucose Level, Week 3 / Fasting Blood Glucose Level, Week 4: glibenclamide 10 mg/kg daily
Experimental: Adult male albino rats of Sprague-Dawley rats (180–220 g) were obtained from the Guangdong Medical Lab Animal Center, and maintained under standard laboratory conditions in a temperature (25–30 °C) and light-controlled (12-h light/dark cycle) room with 35%–60% humidity. The animals were acclimatized for 10 days before the experiments and provided with rodent chow and water ad libitum. The investigation was conducted in accordance with the Guide for the Care and Use of Laboratory Animals and approved by the institutional Animal Ethics Committee.
as §1, §2, §3, §4

[5] = test system: STZ-induced diabetic rats; test: Oxidative stress markers (GSH, SOD, MDA) in liver and kidney of STZ-induced diabetic rats; type: in vivo, rat; details: 4 weeks; for GSH level in kidney: kidney of STZ diabetic rats; for MDA level in the liver: daily administration
Experimental: as §1, §2, §3
The tissue homogenates of liver and kidney were used for the estimate of antioxidant markers. Glutathione (GSH) level was measured with 5, 5'-dithiobis-(2-nitrobenzoic acid) (DTNB) as described by Sedlak and Lindsay. Superoxide dismutase (SOD) activity was assessed according to the method of Sinha. Malondialdehyde (MDA) activity was estimated with the thiobarbituric acid method.

[6] = test system: Caco-2 cells; test: 2-NBDG glucose uptake by Caco-2 cell monolayers, Na+-independent (sodium free buffer); type: cell-based, Human; details: 100 μM compound, Na+-independent (KCl/K2HPO4 buffer)
Experimental: Caco-2 cells, which were derived from human colon adenocarcinoma, were selected for intestinal absorption studies because these cells express the morphological characteristics and most of the functional properties of differentiated small-intestinal enterocytes. Caco-2 cells were seeded on 24-well plates at the density of 2 × 10^5 cells/well. The medium was changed every 1–2 days, and the culture was carried out for 13 days. Then Caco-2 cells were placed in serum-free media for 24 h and then they were washed twice with Hanks’ balanced salt solution (HBSS, pH 7.5, 140 mM NaCl, 5 mM KCl, 1.2 mM Na2HPO4, 2 mM CaCl2, 1.2 mM MgSO4, 20 mM HEPES, 0.2% bovine serum albumin) before the uptake studies. When a sodium free buffer was required, NaCl and Na2HPO4 were replaced with equal amounts of KCl and K2HPO4, respectively. After washing, the cells were incubated for 15 min at room temperature in HBSS before the commencement of this experiment. The uptake studies were initiated by adding HBSS containing either control or test solution (100 μM) and […] (100 μM) for 30 min at 37 °C. Glucose uptake was stopped by adding twofold volume of ice-cold PBS and the wells were washed with ice-cold PBS three times. Fluorescent intensity was measured by a Multimodel Plate Reader (Tecan Infinity 200) with the 485 nmex and 535 nmemiss filter set before and after adding 2-NBDG. Then the cells were lysed in 200 μL lysis buffer (10 mM Tris-HCl pH = 7.4, 150 mM NaCl, 1% Triton-x-100, 1 mM EDTA, 0.1% SDS) and supplemented immediately before they were processed with 10 μg/mL PMSF. Cells were allowed to lyse on ice, and then vortexed and sonicated. The lysate was used for protein determination, protein concentrations were determined as described by BCA kit (Boster, Wuhan, China) with bovine serum albumin as standard.

[7] = test system: SGLT-1; test: Western blot of SGLT-1 protein expression in Caco-2 cells; type: cell-based, Human; details: 100 μM, 6 h
Experimental: Caco-2 cells were cultured on 6-well plates at a density of 1 × 10^6 cells/well for 13 days. The cells were placed in serum-free medium for 24 h prior to the treatment. Then UA and its derivatives (100 μM) were added, after 6 h incubation, the cells were immediately washed three times with ice-cold PBS and lysed in 200 μL lysis buffer. Cells were allowed to lyse on ice, and then scraped, vortexed, sonicated and stored at −80 °C for further analysis. Protein concentrations were determined as described and cell lysate was subjected to western blot analysis. Briefly, proteins with same amount were denatured in sample buffer, separated on 8% SDS-PAGE gel, and transferred onto a polyvinylidene diflouride membrane. […] Membranes were then incubated overnight at 4 °C in blocking buffer with antibodies for GLUT-2, SGLT-1 and β-actin (EMD, Millipore, Billerica, MA, USA). Membranes were washed with TBST and incubated 1 h with appropriate secondary antibodies. Revelation was performed by using the enhanced chemiluminescence reagent and blue-light sensitive film. Densitometric analysis of films was performed with a Hewlett-Packard scanner equipped with a transparent adaptor and UN-SCAN-IT software.

[8] = test system: STZ-induced diabetic rats; test: Serum lipid profile (TG, TC, LDL-C, HDL-C) in STZ-induced diabetic rats; type: in vivo, rat; details: 4 weeks, compounds 100 mg/kg, glibenclamide 10 mg/kg
Experimental: as §1, §2, §3, §4

## CC(=O)O[C@H]1CC[C@@]2(C)C(CC[C@]3(C)C2CC=C2C4[C@@H](C)[C@H](C)CC[C@]4(C(=O)Nc4ccccc4Br)CC[C@]23C)C1(C)C (stereo partly drawn) [Compound 8]
[1]
  inhibition at 100 µM: 9.86 ± 2.68%

## CC(=O)O[C@H]1CC[C@@]2(C)C(CC[C@]3(C)C2CC=C2C4[C@@H](C)[C@H](C)CC[C@]4(C(=O)Nc4ccc(Br)cc4)CC[C@]23C)C1(C)C (stereo partly drawn) [Compound 5]
[1]
  inhibition at 100 µM: 8.72 ± 1.18%

## CC(=O)O[C@H]1CC[C@@]2(C)C(CC[C@]3(C)C2CC=C2C4[C@@H](C)[C@H](C)CC[C@]4(C(=O)O)CC[C@]23C)C1(C)C (stereo partly drawn) [Compound 9]
[1]
  inhibition at 100 µM: 4.4 ± 3.09%

## CC(=O)O[C@H]1CC[C@@]2(C)C(CC[C@]3(C)C2CC=C2C4[C@@H](C)[C@H](C)CC[C@]4(C(=O)Nc4ccccc4Cl)CC[C@]23C)C1(C)C (stereo partly drawn) [Compound 7]
[1]
  inhibition at 100 µM: 8.14 ± 3.81%

## C[C@H]1[C@H](C)CC[C@]2(C(=O)O)CC[C@]3(C)C(=CC[C@@H]4[C@@]5(C)CC[C@H](O)C(C)(C)[C@@H]5CC[C@]43C)[C@H]12 [Compound 1, Ursolic acid]
[1]
  inhibition at 100 µM: 9.88 ± 6.51%
[2]
  daily food intake vs untreated diabetic rats: no obvious decrease
[3]
  serum albumin level vs diabetic control: no appreciable improvement
  serum insulin level vs diabetic control: non-significant effect
  serum total protein level vs diabetic control: no appreciable improvement
[4]
  effect on lowering fasting blood glucose levels: no significant effect
  Fasting Blood Glucose Level, Week 1: 405.00 ± 17.46 mg/dL
  Fasting Blood Glucose Level, Week 2: 392.40 ± 13.32 mg/dL
  Fasting Blood Glucose Level, Week 3: 379.80 ± 19.44 mg/dL
  Fasting Blood Glucose Level, Week 4: 396.00 ± 16.92 mg/dL
[4]; glibenclamide 10 mg/kg
  Fasting Blood Glucose Level, Week 0: 342.00 ± 19.08 mg/dL
[5]
  GSH level in kidney: great effect
[5]; liver of STZ diabetic rats
  MDA level in the liver: obviously down-regulated

## O=C(CCc1ccc(O)cc1)c1c(O)cc(O)cc1O[C@@H]1O[C@H](CO)[C@@H](O)[C@H](O)[C@H]1O [Phlorizin, reference compound]
[1]
  inhibition at 100 µM: 7.7 ± 3.91%
[6]
  glucose uptake, % of the control value (Na+-independent): 75 % of the control value

## CC(=O)O[C@H]1CC[C@@]2(C)C(CC[C@]3(C)C2CC=C2C4[C@@H](C)[C@H](C)CC[C@]4(C(=O)Nc4ccc(Cl)cc4)CC[C@]23C)C1(C)C (stereo partly drawn) [Compound 4]
[1]
  inhibition at 100 µM: 8.53 ± 5.69%

## CC(=O)O[C@H]1CC[C@@]2(C)C(CC[C@]3(C)C2CC=C2C4[C@@H](C)[C@H](C)CC[C@]4(C(=O)Nc4ccc(F)cc4)CC[C@]23C)C1(C)C (stereo partly drawn) [Compound 3]
[1]
  inhibition at 100 µM: 8.65 ± 3.49%

## O=C(CCc1ccc(O)cc1)c1c(O)cc(O)cc1O [Phloretin, reference compound]
[1]
  inhibition at 100 µM: 4.7 ± 2.59%

## CC(C)C(=O)O[C@H]1CC[C@@]2(C)C(CC[C@]3(C)C2CC=C2C4[C@@H](C)[C@H](C)CC[C@]4(C(=O)O)CC[C@]23C)C1(C)C (stereo partly drawn) [Compound 12]
[1]
  inhibition at 100 µM: 7.67 ± 5.36%
[2]
  daily food intake vs untreated diabetic rats: no obvious decrease
[3]
  serum albumin level vs diabetic control: no appreciable improvement
  serum insulin level vs diabetic control: non-significant effect
  serum total protein level vs diabetic control: no appreciable improvement
[4]
  effect on lowering fasting blood glucose levels: no significant effect
  Fasting Blood Glucose Level, Week 1: 392.40 ± 36.54 mg/dL
  Fasting Blood Glucose Level, Week 2: 379.80 ± 30.60 mg/dL
  Fasting Blood Glucose Level, Week 3: 408.60 ± 20.52 mg/dL
  Fasting Blood Glucose Level, Week 4: 432.00 ± 28.26 mg/dL
[4]; glibenclamide 10 mg/kg
  Fasting Blood Glucose Level, Week 0: 325.80 ± 14.58 mg/dL
[5]
  GSH level in kidney: great effect
[7]
  effect on protein expression of SGLT-1: significantly reduce

## CC(=O)O[C@H]1CC[C@@]2(C)C(CC[C@]3(C)C2CC=C2C4[C@@H](C)[C@H](C)CC[C@]4(C(=O)Nc4ccccc4)CC[C@]23C)C1(C)C (stereo partly drawn) [Compound 2]
[1]
  inhibition at 100 µM: 5.02 ± 2.38%

## COc1ccc(Cl)cc1C(=O)NCCc1ccc(S(=O)(=O)NC(=O)NC2CCCCC2)cc1 [Glibenclamide, reference compound]
[2]
  daily food intake vs untreated diabetic rats: reduce daily food intake significantly
[3]
  serum albumin level vs diabetic control: increased significantly
  serum insulin level vs diabetic control: increased significantly
  serum total protein level vs diabetic control: increased significantly
[4]; glibenclamide 10 mg/kg
  Fasting Blood Glucose Level, Week 0: 338.40 ± 16.38 mg/dL
[4]
  Fasting Blood Glucose Level, Week 1: 271.80 ± 18.36 mg/dL
  Fasting Blood Glucose Level, Week 2: 183.60 ± 11.70 mg/dL
  Fasting Blood Glucose Level, Week 3: 216.00 ± 9.72 mg/dL
  Fasting Blood Glucose Level, Week 4: 203.40 ± 13.50 mg/dL
[4]; end of the 4 week treatment, compound 10 100 mg/kg, glibenclamide 10 mg/kg
  decrease in blood glucose levels as compared with diabetic control: 54.4%
[5]; liver and kidney of STZ diabetic rats
  SOD level in the liver and kidney: great improvement
[5]; liver of STZ diabetic rats
  GSH level in liver: significant effects
  MDA level in the liver: obviously down-regulated
[8]
  serum TC level vs diabetic control: significantly decreased
  serum TG level vs diabetic control: significantly decreased
